Results taken from publication PMC10381309 (Journal of Fungi, 2023).

What was measured:
[1] = tested on: Cladophialophora carrionii (CFP 00910); assay: Chequerboard synergism assay (FICI); format: cell-based; settings: C. carrionii
Protocol: (§1) To assess the type of interaction between the hit drugs and the antifungal drugs most used in the treatment of CBM (itraconazole and terbinafine), the fractional inhibitory concentration index (FICI) was determined, which defines the type of interaction between drugs in combination as follows: synergism if FICI ≤ 0.5; indifference if 0.5 < FICI ≤ 4; and antagonism if FICI > 4 [39]. The FICI was obtained by the sum of the fractional inhibitory concentrations (FIC) or by the formula: (A/MIC(a) = FIC_A) + (B/MIC(b) = FIC_B) = FICI, where: A = MIC of the drug (a) in combination; MIC (a) = MIC of drug (a) alone; B = MIC of drug (b) in combination; and MIC (b) = MIC of drug (b) alone. The test was carried out using the chequerboard method, in which the two drugs were applied in a single well of a 96-well plate, so that in each of the wells there were different concentrations of the combinations between the substance and the antifungal agent (Figure S1). Drug dilutions were prepared following the methodology proposed by EUCAST, starting from a stock solution of the hit drug or antifungal drug 100× concentrated, according to the methodology described to determine the MIC [36]. Hit drug A/antifungal drug B serial microdilution preparations were performed following the above mentioned protocol, observing the final concentration in the wells after the addition of drugs and inoculum. […] Column 12 was reserved for drug B (itraconazole or terbinafine) susceptibility testing. Row H was reserved for the selected NCC substance. The other combined drug and substance concentrations were distributed between columns 2 and 11 in rows A to G. Drug concentrations ranged from 0.062 μM to 4 µM for itraconazole and terbinafine, and from 0.125 μM to 64 µM for the hit drug on the combination boards.

[2] = tested on: Exophiala dermatitidis (ATCC 28869); assay: Chequerboard synergism assay (FICI); format: cell-based; settings: E. dermatitidis
Protocol: as §1

[3] = tested on: Exophiala heteromorpha (ATCC 28180); assay: Chequerboard synergism assay (FICI); format: cell-based; settings: E. heteromorpha
Protocol: as §1

[4] = tested on: Fonsecaea monophora (CFP 00911); assay: Chequerboard synergism assay (FICI); format: cell-based; settings: F. monophora
Protocol: as §1

[5] = tested on: Fonsecaea nubica (CFP 00912); assay: Chequerboard synergism assay (FICI); format: cell-based; settings: F. nubica
Protocol: as §1

[6] = tested on: Fonsecaea pedrosoi (CFP 00791); assay: Chequerboard synergism assay (FICI); format: cell-based; settings: F. pedrosoi
Protocol: as §1

[7] = tested on: Phialophora verrucosa (CFP 00937); assay: Chequerboard synergism assay (FICI); format: cell-based; settings: P. verrucosa
Protocol: as §1

[8] = tested on: Rhinocladiela similis (CFP 00790); assay: Chequerboard synergism assay (FICI); format: cell-based; settings: R. similis
Protocol: as §1

[9] = Effect of albendazole on cell viability, MTT assay; format: cell-based; settings: after 96 h
Protocol: After this analysis, the effect on viability of albendazole on both HaCat (human skin keratinocyte) and Vero (monkey kidney epithelial cell) cells was evaluated by MTT assay. Firstly, the mammalian cells (5 × 10^4/well) were allowed to adhere in 96-well tissue culture plates for 4 h at 37 °C in a 5% CO2 atmosphere. Non-adherent cells were removed by washes with sterile DMEM and the wells refilled with DMEM medium supplemented with 10% FBS. The cells were then incubated with increasing concentrations of albendazole (15.62 to 750 µM) and incubated for additional 24 h and 96 h at 37 °C in a 5% CO2 atmosphere. Subsequently, the culture medium was discharged, and the formation of formazan was measured by adding MTT (5 mg/mL in PBS, 25 µg/well) and incubating the wells for 3 h in the dark at 37 °C. Wells with cells receiving only the culture medium with or without 1% DMSO were also included as positive cellular growth controls. The plates were subsequently centrifuged at 500× g for 8 min, the supernatant was removed, the pellet was dissolved in 200 µL of DMSO, and the absorbance measured in an ELISA reader at 570 nm (SpectraMax Gemini 190, Molecular Devices, CA, USA). The 50% cytotoxicity inhibitory concentration (CC50) was determined by non-linear regression analysis.

[10] = tested on: Cladophialophora carrionii (CFP 00910); assay: Urease production in Christensen urea broth (OD 559 nm); format: cell-based; settings: C. carrionii; ½ MIC albendazole; 7 and 12 days, 37 °C
Protocol: (§2) To verify urease production, three strains: Fonsecaea pedrosoi (CFP 00791) Cladophialophora carrionii (CFP 00910), and Exophiala heteromorpha (ATCC® 28180), corresponding to the three major chromoblastomycosis agents worldwide, were cultured on PDA for seven days and further cultured in Christensen urea broth in the presence and absence of albendazole at a ½ MIC concentration. Candida albicans and Cryptococcus neoformans were used as negative and positive controls of the culture medium, respectively. In brief, fungal suspensions were adjusted to a concentration of 10^6 cells/mL and used for inoculation. A volume of 500 μL of these suspensions were inoculated into 4.5 mL of Christensen urea broth and the tubes were then incubated under agitation (150 rpm) at 37 °C. At the end of seven and 12 days of incubation, the tubes were centrifuged, and a volume of 100 μL of the supernatant was transferred to a 96-well plate; this procedure was performed in triplicate. The absorbances of the samples were read on a SpectraMax plus 384 spectrophotometer (Molecular Devices, San José, CA, USA) at 559 nm, as previously described by Almeida-Paes et al.. Results were analyzed statistically using the two-way ANOVA test with multiple comparisons. p values lower than 0.05 were considered significant.

[11] = tested on: Exophiala heteromorpha (ATCC 28180); assay: as above; format: cell-based; settings: E. heteromorpha; ½ MIC albendazole; 7 and 12 days, 37 °C
Protocol: as §2

[12] = tested on: Fonsecaea pedrosoi (CFP 00791); settings: F. pedrosoi; PDA; 7 days, 37 °C; albendazole at ½ MIC
Protocol: At the end of the seven days of incubation at 37 °C, the plates were read visually. The aspect of the colonies supplemented with albendazole were compared to those of the positive melanin and inhibition melanin controls, to determine whether the color of the albendazole-supplemented cultures resembled the positive DHN-melanin or the melanin inhibition control. Pictures of the colonies were captured using a Canon EOS Rebel T7+ digital camera.

SMILES: CCCSc1ccc2nc(NC(=O)OC)[nH]c2c1 [Albendazole]
- FICI Albendazole + Itraconazole ([1]; combination with itraconazole): 1.06
- FICI Albendazole + Terbinafine ([1]; combination with terbinafine): 1.06
- FICI Albendazole + Itraconazole ([2]; combination with itraconazole): 1.06
- FICI Albendazole + Terbinafine ([2]; combination with terbinafine): 1.06
- FICI Albendazole + Itraconazole ([3]; combination with itraconazole): 1.03
- FICI Albendazole + Terbinafine ([3]; combination with terbinafine): 1.06
- FICI Albendazole + Itraconazole ([4]; combination with itraconazole): 1.50
- FICI Albendazole + Terbinafine ([4]; combination with terbinafine): 1.12
- FICI Albendazole + Itraconazole ([5]; combination with itraconazole): 1.25
- FICI Albendazole + Terbinafine ([5]; combination with terbinafine): 1.12
- FICI Albendazole + Itraconazole ([6]; combination with itraconazole): 1
- FICI Albendazole + Terbinafine ([6]; combination with terbinafine): 1.12
- FICI Albendazole + Itraconazole ([7]; combination with itraconazole): 1.125
- FICI Albendazole + Terbinafine ([7]; combination with terbinafine): 2.12
- FICI Albendazole + Itraconazole ([8]; combination with itraconazole): 0.62
- FICI Albendazole + Terbinafine ([8]; combination with terbinafine): 2
- CC50 at 96 h ([9]; human, HaCat keratinocyte cells): 85.1 µM
- CC50 at 96 h ([9]; monkey, Vero kidney epithelial cells): 262 µM
- urease secretion [10]: decrease in urease secretion
- urease secretion [11]: decrease in urease secretion
- melanin production [12]: did not observe a decrease in melanin production
